Test results as given in patent US11213583B2, “Methods and compositions for treating cancer and infectious diseases” (Cedars-Sinai Medical Center, priority 2014, dated 2022).

Tests used:
[1] = test system: Pmel-1 lymphocytes; assay: Flow cytometry of adoptively transferred Thy1.1 Pmel-1 lymphocytes after DC vaccine and temsirolimus; details: with DC vaccine
[2] = test system: RENCA tumors; assay: RENCA tumor treatment model in Balb/c mice; assay type: in vivo; details: αCD4 days 6 and 10; temsirolimus daily days 14 to 34; no cancer vaccine
Method: (§1) (a) RENCA-CA9 tumor cells were implanted into Balb/C mice (n=5 per group) on day 0. CD4 lymphocytes were depleted with αCD4 antibody on days 6 and 10. Mice were treated with daily temsirolimus on days 14 to 34. Tumor growth was monitored. Results are representative of triplicate experiments. (b) In the same experiment, lymphocytes were harvested on day 45, restimulated with CA9 peptide, and stained for CD8 and IFNγ. (c) Following CD4 depletion, spleen, lymph node and blood were collected on days 0, 1, 10. Lymphocytes were stained for CD4, CD8 and FoxP3 and analyzed by flow cytometry. (c-e) The percentages of CD4 cells in the spleen, lymph node and blood on days 0, 1, and 10 following CD4 depletion are reported. (d) Following CD4 depletion, percentages of splenocytes that are CD4 or CD8 positive are reported, and percent of CD4 cells that are FoxP3 positive is reported. (e) In the same experiment, the absolute numbers of splenocytes positive for CD4, CD8, and CD4/FoxP3 are reported. *p<0.05, **p<0.01,***p<0.005.
Furthermore, the presence of tumor itself increased Tregs (FIG. 8). Therefore, we hypothesized that the antitumor immunity induced by mTOR inhibition can be further enhanced by targeting Tregs. Currently there is no clinical strategy to selectively remove Tregs; however, it is feasible to deplete all CD4 lymphocytes. However, CD4 effector cells are required for immune activation. […]

[3] = test system: RENCA tumor cells; details: Wang et al. Br J Cancer 2011; cited from earlier work
[4] = test system: CD8 lymphocytes (IFN-γ); assay: Tumor-specific IFN-γ response of lymphocytes harvested on day 45, RENCA model; assay type: in vivo, mice; details: lymphocytes harvested day 45, restimulated with CA9 peptide
Method: as §1
In the same experiment, lymphocytes were harvested on day 45 and assessed for tumor-specific IFN-γ response (FIG. 2b). In tumor-bearing mice that received no treatment, there was no IFN-γ response. […] To characterize the CD4 lymphocyte depletion in response to αCD4, naïve mice were treated with a single dose of αCD4.

[5] = test system: CD4+FoxP3+ lymphocytes / CTL function; assay: Treg depletion with diphtheria toxin in DEREG mice, in vivo CTL assay

Compound | Eomes expression in Pmel-1 lymphocytes [1] | Tbet expression in Pmel-1 lymphocytes [1] | Tregs [1] | RENCA tumor growth [2] | growth of RENCA tumor cells in vitro [3] | tumor-specific IFN-γ response [4] | CD4+FoxP3+ lymphocytes [5]
CO[C@H]1C[C@@H]2CC[C@@H](C)[C@@](O)(O2)C(=O)C(=O)N2CCCC[C@H]2C(=O)O[C@H]([C@H](C)C[C@@H]2CC[C@@H](OC(=O)C(C)(CO)CO)[C@H](OC)C2)CC(=O)[C@H](C)/C=C(\C)[C@@H](O)[C@@H](OC)C(=O)[C@H](C)C[C@H](C)/C=C/C=C/C=C/1C [temsirolimus] | increased expression of Eomes | decrease in Tbet expression | increase in Tregs | effective in decreasing tumor growth | directly inhibit the growth of RENCA tumor cells in vitro | some IFN-γ response | –
diphtheria toxin [DT] | – | – | – | – | – | – | removed nearly all CD4+FoxP3+ lymphocytes
